Article PMC6437697 (Journal of Medicinal Chemistry, 2019)

Columns and labels:
Assay in all cases: KINOMEscan
Assay type in all cases: binding
Conditions in all cases: read-out: % control activity remaining
RIOK1 = target: T1, RIOK1 (Homo sapiens, UniProt Q9BRS2)
T1 construct: purchased Eurofins DiscoverX KINOMEscan
T1 sequence (Q9BRS2 1-568): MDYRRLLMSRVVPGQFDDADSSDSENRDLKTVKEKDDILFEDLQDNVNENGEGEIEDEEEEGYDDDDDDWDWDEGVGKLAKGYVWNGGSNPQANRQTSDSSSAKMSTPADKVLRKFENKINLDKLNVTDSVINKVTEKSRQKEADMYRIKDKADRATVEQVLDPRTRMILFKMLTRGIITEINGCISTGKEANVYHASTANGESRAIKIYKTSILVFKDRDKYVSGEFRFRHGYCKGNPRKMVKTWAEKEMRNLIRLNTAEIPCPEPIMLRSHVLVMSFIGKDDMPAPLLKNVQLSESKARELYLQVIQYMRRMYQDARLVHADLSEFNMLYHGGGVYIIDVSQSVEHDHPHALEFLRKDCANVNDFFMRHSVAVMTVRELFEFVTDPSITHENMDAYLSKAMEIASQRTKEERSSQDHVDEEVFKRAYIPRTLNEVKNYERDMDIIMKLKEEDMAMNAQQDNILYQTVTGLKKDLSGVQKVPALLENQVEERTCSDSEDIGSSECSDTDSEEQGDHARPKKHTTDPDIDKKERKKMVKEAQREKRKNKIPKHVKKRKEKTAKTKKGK

TLK1 = target: T2, TLK1 (Homo sapiens, UniProt Q9UKI8)
T2 construct: purchased Eurofins DiscoverX KINOMEscan
T2 sequence (Q9UKI8 1-766): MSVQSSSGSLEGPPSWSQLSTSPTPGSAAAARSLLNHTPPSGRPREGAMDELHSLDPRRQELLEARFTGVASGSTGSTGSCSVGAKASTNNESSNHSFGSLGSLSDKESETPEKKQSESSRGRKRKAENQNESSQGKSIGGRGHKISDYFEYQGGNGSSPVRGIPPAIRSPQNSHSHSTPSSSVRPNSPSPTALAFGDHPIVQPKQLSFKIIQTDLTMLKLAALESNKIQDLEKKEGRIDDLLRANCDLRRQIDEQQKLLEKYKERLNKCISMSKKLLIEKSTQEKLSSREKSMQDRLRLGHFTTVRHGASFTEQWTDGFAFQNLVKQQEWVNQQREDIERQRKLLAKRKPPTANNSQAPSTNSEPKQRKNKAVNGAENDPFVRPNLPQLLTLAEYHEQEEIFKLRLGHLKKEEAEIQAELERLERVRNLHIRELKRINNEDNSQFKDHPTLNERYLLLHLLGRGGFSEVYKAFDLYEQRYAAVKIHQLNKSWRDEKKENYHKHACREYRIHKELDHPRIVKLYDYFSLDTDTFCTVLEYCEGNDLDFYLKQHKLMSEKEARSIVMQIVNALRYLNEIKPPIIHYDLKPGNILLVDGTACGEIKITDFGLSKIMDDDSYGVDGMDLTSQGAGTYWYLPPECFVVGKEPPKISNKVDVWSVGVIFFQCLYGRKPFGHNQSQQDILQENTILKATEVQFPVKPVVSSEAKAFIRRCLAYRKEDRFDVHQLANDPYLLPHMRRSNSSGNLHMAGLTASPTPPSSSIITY

PAK3 = target: T3, PAK3 (Homo sapiens, UniProt O75914)
T3 construct: purchased Eurofins DiscoverX KINOMEscan
T3 sequence (O75914 whole entry): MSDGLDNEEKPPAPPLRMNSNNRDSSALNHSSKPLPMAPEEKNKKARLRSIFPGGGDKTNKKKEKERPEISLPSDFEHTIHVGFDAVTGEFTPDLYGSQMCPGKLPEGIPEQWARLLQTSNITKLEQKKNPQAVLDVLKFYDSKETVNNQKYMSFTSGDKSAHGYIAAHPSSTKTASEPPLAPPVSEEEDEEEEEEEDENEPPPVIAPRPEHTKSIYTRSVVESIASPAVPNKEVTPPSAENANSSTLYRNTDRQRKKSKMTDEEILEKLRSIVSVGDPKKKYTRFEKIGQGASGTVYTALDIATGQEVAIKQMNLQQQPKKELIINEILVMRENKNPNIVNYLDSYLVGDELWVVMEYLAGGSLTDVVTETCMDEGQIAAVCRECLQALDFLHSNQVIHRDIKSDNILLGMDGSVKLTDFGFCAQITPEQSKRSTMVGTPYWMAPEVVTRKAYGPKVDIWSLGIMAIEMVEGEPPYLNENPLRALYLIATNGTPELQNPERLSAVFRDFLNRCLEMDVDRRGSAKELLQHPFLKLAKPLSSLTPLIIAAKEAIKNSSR

EPHA4 = target: T4, EPHA4 (Homo sapiens, UniProt P54764)
T4 construct: purchased Eurofins DiscoverX KINOMEscan
T4 sequence (P54764 20-986): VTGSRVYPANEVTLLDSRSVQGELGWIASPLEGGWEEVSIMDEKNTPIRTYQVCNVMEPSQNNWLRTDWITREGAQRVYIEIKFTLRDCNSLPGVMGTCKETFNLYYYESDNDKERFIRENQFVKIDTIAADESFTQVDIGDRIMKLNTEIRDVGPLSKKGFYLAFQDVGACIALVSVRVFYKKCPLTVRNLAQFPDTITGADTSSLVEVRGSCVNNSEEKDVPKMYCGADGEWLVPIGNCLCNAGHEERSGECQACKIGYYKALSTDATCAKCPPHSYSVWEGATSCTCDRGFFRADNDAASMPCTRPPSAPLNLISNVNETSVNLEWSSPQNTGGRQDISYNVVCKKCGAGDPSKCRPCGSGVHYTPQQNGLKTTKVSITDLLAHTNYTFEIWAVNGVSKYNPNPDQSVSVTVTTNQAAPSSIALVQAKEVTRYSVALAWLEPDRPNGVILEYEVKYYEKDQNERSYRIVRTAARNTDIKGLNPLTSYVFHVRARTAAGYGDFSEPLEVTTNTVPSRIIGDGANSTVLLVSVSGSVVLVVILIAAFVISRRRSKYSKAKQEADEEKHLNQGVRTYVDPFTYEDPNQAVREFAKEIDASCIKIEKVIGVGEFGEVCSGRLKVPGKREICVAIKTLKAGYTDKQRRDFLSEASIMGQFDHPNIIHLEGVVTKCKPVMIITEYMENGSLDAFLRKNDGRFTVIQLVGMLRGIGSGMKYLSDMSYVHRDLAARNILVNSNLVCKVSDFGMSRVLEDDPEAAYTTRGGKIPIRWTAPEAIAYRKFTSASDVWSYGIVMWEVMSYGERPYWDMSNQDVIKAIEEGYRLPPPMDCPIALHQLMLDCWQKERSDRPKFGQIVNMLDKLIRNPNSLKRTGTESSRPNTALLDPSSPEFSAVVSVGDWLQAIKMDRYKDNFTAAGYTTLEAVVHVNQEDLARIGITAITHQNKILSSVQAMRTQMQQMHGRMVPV

ROCK2 = target: T5, ROCK2 (Homo sapiens, UniProt O75116)
T5 construct: purchased Eurofins DiscoverX KINOMEscan
T5 sequence (O75116 whole entry): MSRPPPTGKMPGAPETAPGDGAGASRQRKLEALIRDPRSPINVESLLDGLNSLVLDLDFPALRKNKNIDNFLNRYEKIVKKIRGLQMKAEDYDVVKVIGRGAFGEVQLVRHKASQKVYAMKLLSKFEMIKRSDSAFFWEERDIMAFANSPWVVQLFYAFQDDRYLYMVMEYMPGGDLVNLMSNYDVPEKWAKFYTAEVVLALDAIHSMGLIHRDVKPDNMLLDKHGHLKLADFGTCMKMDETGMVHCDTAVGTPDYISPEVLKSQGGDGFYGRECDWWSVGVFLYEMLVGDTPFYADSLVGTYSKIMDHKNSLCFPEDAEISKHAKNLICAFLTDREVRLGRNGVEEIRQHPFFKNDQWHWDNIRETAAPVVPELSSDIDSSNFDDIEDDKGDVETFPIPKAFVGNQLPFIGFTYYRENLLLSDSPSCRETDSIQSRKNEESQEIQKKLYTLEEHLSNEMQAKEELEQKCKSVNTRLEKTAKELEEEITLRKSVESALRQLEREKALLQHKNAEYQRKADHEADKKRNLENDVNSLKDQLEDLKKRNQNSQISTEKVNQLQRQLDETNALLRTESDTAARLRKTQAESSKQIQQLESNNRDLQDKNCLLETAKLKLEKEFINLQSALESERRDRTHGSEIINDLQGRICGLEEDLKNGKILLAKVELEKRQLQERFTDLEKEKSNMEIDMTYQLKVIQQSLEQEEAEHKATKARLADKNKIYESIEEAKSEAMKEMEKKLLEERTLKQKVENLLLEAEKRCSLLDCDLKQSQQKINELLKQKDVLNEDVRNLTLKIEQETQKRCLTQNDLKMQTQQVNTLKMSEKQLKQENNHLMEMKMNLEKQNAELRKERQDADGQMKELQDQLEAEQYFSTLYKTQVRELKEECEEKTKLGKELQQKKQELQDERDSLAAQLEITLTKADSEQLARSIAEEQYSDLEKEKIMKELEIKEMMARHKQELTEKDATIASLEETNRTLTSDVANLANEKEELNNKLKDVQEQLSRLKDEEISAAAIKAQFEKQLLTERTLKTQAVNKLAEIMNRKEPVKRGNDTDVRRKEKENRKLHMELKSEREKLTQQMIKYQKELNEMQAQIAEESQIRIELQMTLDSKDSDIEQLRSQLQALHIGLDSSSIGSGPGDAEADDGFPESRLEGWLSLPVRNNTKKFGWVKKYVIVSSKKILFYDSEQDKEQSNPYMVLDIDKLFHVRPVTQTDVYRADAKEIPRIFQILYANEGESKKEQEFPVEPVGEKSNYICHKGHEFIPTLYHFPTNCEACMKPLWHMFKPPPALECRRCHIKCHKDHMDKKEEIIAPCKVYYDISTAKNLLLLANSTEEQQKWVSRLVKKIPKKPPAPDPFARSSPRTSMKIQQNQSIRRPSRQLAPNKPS

FLT3(D835H) = target: T6, FLT3(D835H) (Homo sapiens, UniProt P36888, D835H)
T6 construct: purchased Eurofins DiscoverX KINOMEscan
T6 sequence (P36888 27-993 D835H): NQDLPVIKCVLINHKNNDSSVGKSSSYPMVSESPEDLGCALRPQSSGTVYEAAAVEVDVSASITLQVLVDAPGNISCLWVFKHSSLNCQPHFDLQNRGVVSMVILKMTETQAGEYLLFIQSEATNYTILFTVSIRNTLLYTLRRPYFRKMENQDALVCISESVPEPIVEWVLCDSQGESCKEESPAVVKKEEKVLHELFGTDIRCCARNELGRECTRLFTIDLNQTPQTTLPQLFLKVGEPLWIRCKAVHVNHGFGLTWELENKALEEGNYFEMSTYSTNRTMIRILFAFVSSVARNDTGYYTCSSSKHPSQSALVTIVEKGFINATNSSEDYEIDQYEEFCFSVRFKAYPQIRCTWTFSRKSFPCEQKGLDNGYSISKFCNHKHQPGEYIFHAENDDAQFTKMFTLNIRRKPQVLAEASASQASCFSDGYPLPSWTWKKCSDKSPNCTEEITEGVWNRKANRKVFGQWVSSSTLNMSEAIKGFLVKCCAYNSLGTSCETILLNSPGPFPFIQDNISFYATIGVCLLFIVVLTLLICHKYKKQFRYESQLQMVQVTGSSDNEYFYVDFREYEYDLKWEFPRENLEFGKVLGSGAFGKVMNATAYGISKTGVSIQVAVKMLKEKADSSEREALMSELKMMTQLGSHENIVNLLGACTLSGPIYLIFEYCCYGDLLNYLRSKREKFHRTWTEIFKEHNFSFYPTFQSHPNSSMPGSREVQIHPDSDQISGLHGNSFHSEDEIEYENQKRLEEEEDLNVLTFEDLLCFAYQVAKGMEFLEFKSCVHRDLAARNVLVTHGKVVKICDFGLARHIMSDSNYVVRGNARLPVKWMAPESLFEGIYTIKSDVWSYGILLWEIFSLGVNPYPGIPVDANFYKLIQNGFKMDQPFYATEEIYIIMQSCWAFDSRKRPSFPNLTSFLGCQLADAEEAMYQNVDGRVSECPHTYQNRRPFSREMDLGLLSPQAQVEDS

SMILES	remaining binding at 1 µM (RIOK1) [%]	remaining binding at 1 µM (TLK1) [%]	remaining binding at 1 µM (PAK3) [%]	remaining binding at 1 µM (EPHA4) [%]	remaining binding at 1 µM (ROCK2) [%]	remaining binding at 1 µM (FLT3(D835H)) [%]
Clc1cc(NCC2CC2)c2ncc(-c3ccc4[nH]ncc4c3)n2n1 [compound 2, 6-Chloro-N-(cyclopropylmethyl)-3-(1H-indazol-5-yl)imidazo[1,2-b]pyridazin-8-amine]	35	96	63	84	31	13
O=C(CN1CCOCC1)N[C@H]1CC[C@H](Nc2cc(Cl)nn3c(-c4ccc5[nH]ncc5c4)cnc23)CC1 [compound 26]	33	87	81	99	21	5.5
CN1CCC(CNc2cc(Cl)nn3c(-c4cc5nc(Nc6ccccc6)[nH]c5cc4F)cnc23)CC1 [compound 31, 6-Chloro-3-(6-fluoro-2-(phenylamino)-1H-benzo[d]imidazol-5-yl)-N-((1-methylpiperidin-4-yl)methyl)imidazo[1,2-b]pyridazin-8-amine]	88	93	100	100	100	90
